Results reported in patent publication US20240239818A1, “COMPOUNDS AND COMPOSITIONS COMPRISING FLUOROPHORES FOR USE IN VISUALIZATION AND PURIFICATION OR MANIPULATION” (priority 2022, published 2024).

Legend:
[1] = biological target: T1, msGFP-HaloTag® fusion localized to the mitochondrial outer membrane (Rhodococcus rhodochrous, UniProt P0A3G2, A155T/A167V/A172T/A224E/C128F/C176G/D78G/E160K/E257K/H272N/K175M/K195N/L47V/L88M/N227D/S58T/T264A/Y273L/Y87F); experiment: HEK293T labeling and fluorescence microscopy; type: cell-based; details: for labeling of mitochondria-localized HaloTag®-msGFP fusion: live HEK293T cells, nanomolar concentration (100 nM, 1 h); for concentration at which ligand can be deployed for cellular labeling: live cells; for cellular fluorescence intensity (JF ligand/msGFP ratio): HEK293T cells, 100 nM, same imaging conditions
T1 construct: expressed in transfected cells; host or cells: HEK293T, calcium phosphate transfection
T1 sequence (P0A3G2 other isoform, or with tags, fused parts or gaps with the stated changes): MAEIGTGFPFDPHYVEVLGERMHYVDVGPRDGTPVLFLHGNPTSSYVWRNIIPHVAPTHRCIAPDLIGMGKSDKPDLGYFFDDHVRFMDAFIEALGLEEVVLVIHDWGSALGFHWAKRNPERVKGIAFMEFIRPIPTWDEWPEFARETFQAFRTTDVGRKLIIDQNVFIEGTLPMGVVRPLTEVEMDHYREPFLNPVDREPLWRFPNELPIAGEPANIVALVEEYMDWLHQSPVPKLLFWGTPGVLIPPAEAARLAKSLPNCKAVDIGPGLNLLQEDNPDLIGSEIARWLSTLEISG
Description: Plasmid construction. HaloTag®, amplified from the pHTC HaloTag® CMV-neo Vector (Promega; G7711) and monomeric-superfolder green fluorescent protein (msGFP; lab stock), was fused to the mitochondrial targeting signal from OMP25,^28 interspacing flexible GS(GSS)4 linkers between each domain by PCR Splicing by Overlap Extension (SOE). This construct was subcloned into hSynapsin promoter bearing a copy of FUGW.^29 FUGW was a gift from David Baltimore (Addgene plasmid #14883; RRID: Addgene_14883).^48 This construct was designated as pF(UG) hSyn HaloTag®-TEV-4×GS-msGFP-mito.
HEK293T cell culture. HEK293T cells (ATCC) were passaged before 80% confluency by trypsinization (Corning; 25-053-CI) and trituration. The cell suspension was then plated on glass coverslips (Warner instruments; 64-0734, CS-18R17) coated with poly-D-lysine (Thermofisher; ICN10269491) and cultured in Dulbecco's Modified Eagle Medium (DMEM; ThermoFisher; 11965-118) supplemented with 10% v/v fetal bovine serum (FBS, Atlanta Biological) and penicillin/streptomycin (pen/strep; ThermoFisher; MT-30-001-CI) at 37° C. in a humidified 5% v/v CO2 environment following ATCC guidelines. These HEK293T cells were tested for mycoplasma contamination using the Universal Mycoplasma Detection Kit (ATCC; 30-1012K) and validated using Short Tandem Repeat profiling by ATCC (ATCC; 135-XV) within the previous year.
HEK293T labeling and fluorescence microscopy. […] For pulse-chase experiments, HEK293T cells were incubated with biotin-HaloTag® ligand (6; #G8281, Promega) at either 100 nM or 10 μM for 1 hour at 37° C. and chased with 100 nM of JANELIA FLUOR® (JF)549-HaloTag® ligand (2HTL). […] For imaging, the coverslips containing HEK293T cells were fixed with 4% paraformaldehyde in PBS at 37° C. for 10 min, washed with PBS (3×), and mounted on glass slides with ProLong Glass Antifade Mountant with NucBlue™ Stain (ThermoFisher; P36981). These cells were imaged using a Zeiss LSM 880 with Airyscan and a plan-apochromatic 63×/1.40 oil objective in Fast Airyscan mode. The same image acquisition settings were used for each trial and condition. Images were then processed with automatic Airyscan deconvolution settings.

[2] = Determination of lactone-zwitterion equilibrium constant (KL-Z); type: physicochemical; details: 1:1 (v/v) dioxane:water
Method: Determination of KL-Z. The lactone-zwitterion equilibrium constant (KL-Z) was calculated as described previously^13, 23, 32, 45 using equation 1: […]
where εdw is the extinction coefficient of the dyes in a 1:1 (v/v) dioxane:water solvent mixture containing 0.01% (v/v) triethylamine; this dioxane water mixture was chosen to give a large range of KL-Z values,^23 and the triethylamine additive ensures the rhodamines are in the net neutral form. The εmax is the maximal extinction coefficient, measured in 0.1% (v/v) trifluoroacetic acid in 2,2,2-trifluoroethanol (TFE).

[3] = 1-Photon spectroscopy and quantum yield of HaloTag® ligands; type: physicochemical; details: free ligand, 10 mM HEPES pH 7.3
Method: 1-Photon spectroscopy of HaloTag® ligands and HaloTag® conjugates. […] All measurements were taken at ambient temperature (22 ±2° C.). Absorption spectra were recorded on a Cary Model 100 spectrometer (Agilent) using 1-cm path length 1.0-mL quartz microcuvettes from Starna Cells. Fluorescence spectra were recorded on a Cary Eclipse fluorometer (Varian) using 1-cm path length 3.5-mL quartz cuvettes (Starna Cells). As before,^13, 23, 32, 45 HaloTag® protein was used as a 100 μM solution in 1×TBS. HaloTag® ligands 12-15 (5 μM) were dissolved in 10 mM HEPES, pH 7.3, containing 0.1 mg/mL CHAPS. An aliquot of HaloTag® protein (1.5 equiv) was added, and the resulting mixture was incubated until a consistent absorbance signal was observed (60-120 min). To measure the fold-increase of absorbance upon HaloTag® binding, a “no HaloTag®” control experiment was performed where an equivalent volume of TBS blank was added in place of the protein. Reported values for extinction coefficient (ε) are averages of at least two measurements.
Quantum yield determination. All reported absolute fluorescence quantum yield values (Φf) were measured in the laboratory under identical conditions using a Quantaurus-QY spectrometer (model C11374, Hamamatsu). This instrument uses an integrating sphere to determine photons absorbed and emitted by a sample. Measurements were performed using dilute samples (absorbance<0.1), and self-absorption corrections were performed using the instrument software.^46 Reported values are averages of at least two measurements.

[4] = system: HaloTag®-histone H2B fusion protein; type: cell-based; details: for time to reach saturation of labeling: 200 nM, live U2OS cells expressing HaloTag®-H2B, 0-4 h
Method: Dye loading kinetics. Live U2OS.H2B.HaloTag® stable cells were labeled over a time course of 0-4 h with 200 nM of biotin-JF549-HaloTag® ligand (12), biotin-JF608-HaloTag® ligand (13), biotin-JF646-HaloTag® ligand (14), or biotin-JF635-HaloTag® ligand (15) at 37° C. Cells were then washed 3× with dye-free media, fixed with 4% paraformaldehyde in 0.1 M phosphate buffer, pH 7.4 for 15 min at 37° C. Confocal imaging was performed on a Leica SP8 with an HC PL APO CS2 20×/0.75 immersion objective using the tunable white light laser (WLL) to excite dyes at their λabs in constant power mode. Fluorescence was quantified as the average integrated density of background corrected nuclear signals from confocal image stack projections analyzed in FIJI; n=100 nuclear signals per compound.

Molecule	labeling of mitochondria-localized HaloTag®-msGFP fusion [1]	KL-Z [2]	extinction coefficient (ε) [3]	fluorescence quantum yield (Φf) [3]	λabs [3]	λem [3]	time to reach saturation of labeling [4]	concentration at which ligand can be deployed for cellular labeling [1]	cellular fluorescence intensity (JF ligand/msGFP ratio) [1]	membrane permeability [4]
C[Si]1(C)c2cc(N3CC(F)C3)ccc2C2(OC(=O)c3ccc(C(=O)NCCOCCOCCCCCCCl)cc32)c2ccc(N3CC(F)C3)cc21 [5HTL, JF635-HaloTag® ligand, reference compound]	labeled the mitochondria in live cells	0.0048	–	–	–	–	–	–	–	–
C[Si]1(C)C2=CC(=[N+]3CC(C(=O)NCCOCCOCCNC(=O)CCCC[C@@H]4SC[C@@H]5NC(=O)N[C@@H]54)C3)C=CC2=C(c2cc(C(=O)NCCOCCOCCCCCCCl)ccc2C(=O)[O-])c2ccc(N3CCC3)cc21 (stereo partly drawn) [compound 14, Biotin-JF646-HaloTag® ligand]	labeled the mitochondria in live cells	0.0086	34,000 M^−1cm^−1	0.56	647 nm	666 nm	approximately 1 h	100 nM	–	–
C[Si]1(C)C2=CC(=[N+]3CC(F)(C(=O)NCCOCCOCCNC(=O)CCCC[C@@H]4SC[C@@H]5NC(=O)N[C@@H]54)C3)C=CC2=C(c2cc(C(=O)NCCOCCOCCCCCCCl)ccc2C(=O)[O-])c2ccc(N3CC(F)C3)cc21 (stereo partly drawn) [compound 15, Biotin-JF635-HaloTag® ligand]	labeled the mitochondria in live cells	0.0032	2,900 M^−1cm^−1	0.60	636 nm	655 nm	approximately 1 h	100 nM	lower fluorescence intensity than 5HTL	–
Biotin-JF549-HaloTag® ligand [compound 12]	did not show appreciable cellular labeling	5.9	92,000 M^−1cm^−1	0.90	552 nm	575 nm	–	–	poor labeling	negligible membrane permeability
